Test results as given in patent US4870074A, “Substituted benzamide derivatives, for enhancing gastrointestinal motility” (priority 1986, dated 1989).

How the values were obtained:
gastric emptying = test: Test 1: gastric emptying enhancing activity (phenol red test meal); type: in vivo, Male Wistar rats; settings: for change in vivo at 2 mg/kg / change in vivo at 0.5 mg/kg / change in vivo at 5 mg/kg / change in vivo at 10 mg/kg / change in vivo at 0.2 mg/kg: po, 0.25 h, 60 min before test meal, rat, read-out: Gastric emptying enhancing activity, Increase (emptying rate vs control); for change in vivo at 2 mg/kg: 2.0 mg/kg p.o.; for change in vivo at 0.5 mg/kg: 0.5 mg/kg p.o.; for change in vivo at 5 mg/kg: 5.0 mg/kg p.o.; for change in vivo at 10 mg/kg: 10.0 mg/kg p.o.; for change in vivo at 0.2 mg/kg: 0.2 mg/kg p.o.
Experimental: The test was carried out according to the method of Scarpignato et al. [cf. Arch. int. Pharmacodyn., 246, 286-294 (1980)].
Male Wistar rats, weighing 130-150 g, were fasted for 18 hours before experimentation, and 1.5 ml of a test meal (phenol red 0.05% in a 1.5% aqueous methylcellulose solution) was given by gastric tube. Fifteen minutes after administration of the meal the stomach was removed and the amount of phenol red remaining in the stomach was measured.
The test compounds, dissolved or suspended in a 0.5% tragacanth solution, were orally administered 60 minutes before administration of the test meal. The rate of gastric emptying was calculated according to the amount of phenol red remaining in the stomach, and the activity of the test compounds was expressed in terms of increase in the emptying rate from the control. The number of animals used was 5 for the control and each dose of metoclopramide hydrochloride monohydrate and 4 for each dose of the other test compounds.

central nervous system = test: Test 3: effect on the central nervous system (CNS effect), Irwin observation; settings: 100 mg/kg, p.o., mouse, 2 hours observation
Experimental: Male ddY mice, weighing 18-25 g, were used in groups of 3 animals each. […] Psychopharmacologia, 13, 222-227 (1968)], comprehensive observation of behavioral and physiologic states were carried out for 2 hours after the oral treatment with 100 mg/kg of the test compound, dissolved or suspended in a 0.5% tragacanth solution. Liability of the test compounds to the central nervous system effect was expressed with the following marks, according to the total sum of potencies for the individually analyzed effects, such as catalepsy, ptosis, hypolocomotin, etc.

Row | CNS effect (central nervous system) | SMILES | change in vivo at 2 mg/kg (gastric emptying) [%] | also measured
1 | - | COc1cc(N)c(Cl)cc1C(=O)NCC1CN(Cc2ccccc2)CCO1 (stereo not shown) [18(2), 4-amino-N-[(4-benzyl-2-morpholinyl)methyl]-5-chloro-2-methoxybenzamide] | 39.3 | 
2 | - | CCOc1cc(N)c(Cl)cc1C(=O)NCC1CN(Cc2ccccc2)CCO1 (stereo not shown) [63(1), 4-amino-N-[(4-benzyl-2-morpholinyl)methyl]-5-chloro-2-ethoxybenzamide] | 54.4 | change in vivo at 0.5 mg/kg (gastric emptying): 33.9%
3 | - | CCOc1cc(N)c(Cl)cc1C(=O)NCC1CN(Cc2ccccc2Cl)CCO1 (stereo not shown) [66(1)] | 41.3 | 
4 | - | CCOc1cc(N)c(Cl)cc1C(=O)NCC1CN(Cc2ccc(Cl)cc2)CCO1 (stereo not shown) [68(1)] | 62.7 | 
5 | - | CCOc1cc(N)c(Cl)cc1C(=O)NCC1CN(Cc2cccnc2)CCO1 (stereo not shown) [80(1)] | 65.6 | 
6 |  | CCN(CC)CCNC(=O)c1cc(Cl)c(N)cc1OC [A, 4-amino-5-chloro-N-[(2-diethylamino)ethyl]-2-methoxybenzamide, reference compound] | 20.7 | change in vivo at 5 mg/kg (gastric emptying): 25.7%; change in vivo at 10 mg/kg (gastric emptying): 30.7%
7 |  | CCN1CCOC(CNC(=O)c2ccccc2OC)C1.O=C(O)/C=C/C(=O)O (stereo not shown) [Compound B, N-[(4-Ethyl-2-morpholinyl)methyl]-2-methoxybenzamide fumarate, reference compound] | 3.8 | gastric emptying enhancing effect (in words) (gastric emptying; even at a dose of 10.0 mg/kg p.o.): did not show any effect; change in vivo at 5 mg/kg (gastric emptying): -1.9%; change in vivo at 10 mg/kg (gastric emptying): 2.1%
8 | - | CCOc1cc(N)c(Cl)cc1C(=O)NCC1CN(Cc2ccc(F)cc2)CCO1 (stereo not shown) [Example 1(1), 4-amino-5-chloro-2-ethoxy-N-[[4-(4-fluorobenzyl)-2-morpholinyl]methyl]benzamide] | 49.8 | change in vivo at 0.2 mg/kg (gastric emptying): 39.5%
9 | - | COc1cc(N)c(Cl)cc1C(=O)NCC1CN(Cc2ccc(C#N)cc2)CCO1 (stereo not shown) [Example 6, 4-amino-5-chloro-N-[[4-(4-cyanobenzyl)-2-morpholinyl]methyl]-2-methoxybenzamide] | 49.2 | 
10 |  | CCOc1cc(NC(C)=O)c(Cl)cc1C(=O)NCC1CN(Cc2ccc(F)cc2)CCO1 (stereo not shown) [Example 7, 4-acetylamino-5-chloro-2-ethoxy-N-[[4-(4-fluorobenzyl)-2-morpholinyl]methyl]benzamide] | 74 | 
11 | - | CCOc1cc(N)c(Cl)cc1C(=O)NCCC1CN(Cc2ccccc2)CCO1 (stereo not shown) [Example 8, 4-amino-N-[2-(4-benzyl-2-morpholinyl)ethyl]-5-chloro-2-ethoxybenzamide] | 44.9 | 
12 |  | CCOc1cc(N)c(Cl)cc1C(=O)NCC1CN(Cc2ccccc2Cl)CC(C)O1 (stereo not shown) [Example 14, 4-amino-5-chloro-N-[[4-(2-chlorobenzyl)-6-methyl-2-morpholinyl]methyl]-2-ethoxybenzamide] | 47.5 | 
13 |  | CCOc1cc(N)c(Cl)cc1C(=O)NCC1CN(Cc2ccccc2)CCCO1 (stereo not shown) [Example 16, 4-amino-N-[(4-benzyl-hexahydro-1,4-oxazepin-2-yl)methyl]-5-chloro-2-ethoxybenzamide] | 47.3 | 
14 |  | COc1cc(N)c(Cl)cc1C(=O)NCC1CN(Cc2c(F)c(F)c(F)c(F)c2F)CCO1 (stereo not shown) [Example 25] | 39.1 | 
15 |  | COc1cc(N)c(Cl)cc1C(=O)NCC1CN(Cc2cccc(C(F)(F)F)c2)CCO1 (stereo not shown) [Example 28] | 42.8 | 
16 |  | COc1cc(N)c(Cl)cc1C(=O)NCC1CN(Cc2cccc(C#N)c2)CCO1 (stereo not shown) [Example 33] | 42.3 | 
17 |  | COc1cc(N)c(Cl)cc1C(=O)NCC1CN(C(C)c2ccccc2)CCO1 (stereo not shown) [Example 37] | 42.2 | 
18 |  | COc1cc(N)c(Cl)cc1C(=O)NCC1CN(CCCOc2ccc(Cl)cc2)CCO1 (stereo not shown) [Example 52] | 52.5 | 
19 |  | CCOc1cc(N)c(Cl)cc1C(=O)NCC1CN(Cc2ccccc2F)CCO1 (stereo not shown) [Example 64] | 59.9 | 
20 |  | CCOc1cc(N)c(Cl)cc1C(=O)NCC1CN(Cc2cccc(F)c2)CCO1 (stereo not shown) [Example 65] | 54.1 | 

Row | CNS effect (central nervous system) | SMILES | change in vivo at 2 mg/kg (gastric emptying) [%] | also measured
21 | - | CCOc1cc(N)c(Cl)cc1C(=O)NCC1CN(Cc2cccc(Cl)c2)CCO1 (stereo not shown) [Example 67] | 57.5 | 
22 | - | CCOc1cc(N)c(Cl)cc1C(=O)NCC1CN(Cc2cccc(C(F)(F)F)c2)CCO1 (stereo not shown) [Example 70] | 57.8 | 
23 |  | CCOc1cc(N)c(Cl)cc1C(=O)NCC1CN(Cc2ccc(C#N)cc2)CCO1 (stereo not shown) [Example 73] | 46.2 | change in vivo at 0.5 mg/kg (gastric emptying): 44.2%
24 | - | CCOc1cc(N)c(Cl)cc1C(=O)NCC1CN(Cc2ccc(Cl)cc2[N+](=O)[O-])CCO1 (stereo not shown) [Example 74] | 46.7 | 
25 |  | CCOc1cc(N)c(Cl)cc1C(=O)NCC1CN(CCCCc2ccccc2)CCO1 (stereo not shown) [Example 76] | 47.1 | 
26 |  | CCOc1cc(N)c(Cl)cc1C(=O)NCC1CN(C(C)c2ccccc2)CCO1 (stereo not shown) [Example 77] | 43.8 | 
27 |  | CCOc1cc(N)c(Cl)cc1C(=O)NCC1CN(Cc2ccccn2)CCO1 (stereo not shown) [Example 79] | 51 | 
28 | - | CCOc1cc(N)c(Cl)cc1C(=O)NCC1CN(Cc2ccncc2)CCO1 (stereo not shown) [Example 81] | 52.9 | 
29 |  | CCCOc1cc(N)c(Cl)cc1C(=O)NCC1CN(Cc2ccccc2)CCO1 (stereo not shown) [Example 86] | 55 | 
30 | + | CCCCOc1cc(N)c(Cl)cc1C(=O)NCC1CN(Cc2ccc(F)cc2)CCO1 (stereo not shown) [Example 89] | 49.9 | 
31 | - | CCCCOc1cc(N)c(Cl)cc1C(=O)NCC1CN(Cc2ccccc2Cl)CCO1 (stereo not shown) [Example 90] | 55.4 | 
32 | - | CC(C)COc1cc(N)c(Cl)cc1C(=O)NCC1CN(Cc2ccccc2)CCO1 (stereo not shown) [Example 91] | 51.2 | 
33 |  | CCCCCOc1cc(N)c(Cl)cc1C(=O)NCC1CN(Cc2ccccc2)CCO1 (stereo not shown) [Example 92] | 41 | 
34 |  | Nc1cc(OCCCl)c(C(=O)NCC2CN(Cc3ccccc3)CCO2)cc1Cl (stereo not shown) [Example 102] | 46.8 | 
35 |  | Nc1cc(OCC2CC2)c(C(=O)NCC2CN(Cc3ccccc3)CCO2)cc1Cl (stereo not shown) [Example 111] | 48.7 | 
36 |  | C=CCOc1cc(N)c(Cl)cc1C(=O)NCC1CN(Cc2ccccc2)CCO1 (stereo not shown) [Example 115] | 45.6 | 
37 |  | C#CCOc1cc(N)c(Cl)cc1C(=O)NCC1CN(Cc2ccccc2)CCO1 (stereo not shown) [Example 120] | 40.6 | 
38 |  | COc1cc(N(C)C)c(Cl)cc1C(=O)NCC1CN(Cc2ccccc2)CCO1 (stereo not shown) [Example 130] | 51.8 | 
39 |  | CCOc1cc(N(C)C)c(Cl)cc1C(=O)NCC1CN(Cc2ccccc2)CCO1 (stereo not shown) [Example 132] | 50.6 | 
40 |  | CCOc1cc(N)c(Cl)cc1C(=O)NCC1C[N+]([O-])(Cc2ccccc2Cl)CCO1 (stereo not shown) [Example 244, 4-amino-5-chloro-N-[[4-(2-chlorobenzyl)-2-morpholinyl]methyl]-2-ethoxybenzamide N-oxide] | 51.8 | 

Row | SMILES | CNS effect (central nervous system) | change in vivo at 2 mg/kg (gastric emptying) [%] | also measured
41 | CCCCOc1cc(N)c(Cl)cc1C(=O)NCC1CN(Cc2ccccc2)CCO1 (stereo not shown) [Example 88, 4-amino-N-[(4-benzyl-2-morpholinyl)methyl]-2-butoxy-5-chlorobenzamide] | - | 53.7 | change in vivo at 0.2 mg/kg (gastric emptying): 32.8%; change in vivo at 0.5 mg/kg (gastric emptying): 42.9%
